Structures are written as SMILES. In brackets after ≈: the same amount, converted by molar mass.

For data set [1], the system named is Cryptococcus neoformans. Description: Antifungal activity against Cryptococcus neoformans. It is filed as functional.
Data set [2] deals with Chlamydia trachomatis. Briefly: Bactericidal activity against Chlamydia trachomatis. It is filed as functional.
A short description of data set [3]: Cytotoxicity against human HeLa cells. It is filed as toxicity, cell-based.
Data set [4] can be described thus: Inhibition of Aeromonas proteolytica aminopeptidase. Also noted: species or system Vibrio proteolyticus.
Data set [5] relates to Mycobacterium tuberculosis. Description: Antibacterial activity against Mycobacterium tuberculosis. Format: functional.
In data set [6] the test system is Candida albicans. Briefly: Antifungal activity against Candida albicans. It is filed as functional.
For data set [7], the system named is Nakaseomyces glabratus. Briefly: Antifungal activity against Candida glabrata. Format: functional.
Data set [8] in a line: Inhibition of Mycobacterium tuberculosis MetAP1a.
Data set [9] can be described thus: Inhibition of Mycobacterium tuberculosis MetAP1c.
The test system of data set [10] is Chlamydia. Briefly: Antibacterial activity against Chlamydia. Format: functional.
Data set [11] deals with Candida albicans. Briefly: Antibiofilm activity against Candida albicans. It is filed as functional.
Data set [12] has as its system Aspergillus. Description: Antifungal activity against Aspergillus. It is filed as functional.
Data set [13] in a line: Inhibition of Mycobacterium tuberculosis Zmp1.
Data set [14] relates to Candida. Briefly: Antibiofilm activity against Candida. Format: functional.

A word on the MIC80: it is the lowest concentration that inhibits either 80% of growth or 80% of the strains tested, depending on the study. Higher therefore signals weaker potency. Take `Cc1ccc(S(=O)(=O)OCCn2cc(COc3cccc4cccnc34)nn2)cc1`: the MIC80 in data set [1] was determined as 2.36 µM (≈ 1 µg/mL).
The MBC is the lowest tested concentration that kills the bacteria rather than only halting them. A low value points to more potent killing. `O=C(O)c1cn(C2CC2)c2cc(N3CCNCC3)c(F)cc2c1=O` [CIPROFLOXACIN]: the minimal bactericidal concentration (MBC) in data set [2] is greater than 50 µM.
As usually defined, the IC50 is the midpoint of a concentration-inhibition curve. Lower therefore signals greater potency in that assay. Compound `CCOC(=O)c1cc2c(Br)cc(Br)c(O)c2nc1C` displayed a 50% inhibitory concentration (IC50) in data set [3] greater than 100 µM.
What is called Ki is the dissociation constant of the complex between target and ligand, obtained from inhibition or displacement. A lower Ki goes with tighter binding. In turn, `Cc1ccc2cccc(O)c2n1` [8-HYDROXY QUINALDINE] returned an inhibitory constant (Ki) in [4] greater than 100000 nM.
The compound `Cc1ccccc1OCC(O)COc1cccc2cccnc12` (centres undefined) returned an MIC in data set [5] of 23.3 µM (≈ 7.21 µg/mL).
`N#Cc1ccc(Nc2nc(Oc3cccc4cccnc34)nc(N3CCN(c4ccccn4)CC3)n2)cc1C(F)(F)F`: the MIC in data set [5] amounted to 439 µM (≈ 250 µg/mL); in data set [6], 9.8 µM (≈ 5.58 µg/mL).
For `O=S(=O)(O)c1ccc(O)c2ncccc12`, the MIC in data set [7] and in [6] was 4.44 µM (≈ 1 µg/mL) in each case.
Take `Oc1ccc(Cl)c2cccnc12` [CLOXYQUIN]: the Ki in data set [4] turned out to be 160 nM.
Regarding `O=C(NNC(c1ccc2cccnc2c1O)c1c(-c2ccccc2)[nH]c2ccc(Cl)cc12)c1ccncc1` (centres undefined), the MIC in data set [5] amounted to 24 µM (≈ 12.5 µg/mL).
As to `Cc1ccc2ccc(C(=O)NCc3ccc(F)cc3)c(O)c2n1`, the MIC in [5] was greater than 500 µM.
As for `Clc1cc2c(c3ncccc13)OCN(C1CCCCC1)C2`, the results for the IC50 in data set [8] and in [9] were 4.3 µM and 3.76 µM, respectively.
Regarding `COc1cccc(/C=C/c2ccc3cccc(O)c3n2)c1`, the MIC in [5] is greater than 200 µM.
Take `O=C(NCCN1OCC(NC(=O)c2ccc3cccc(O)c3n2)C1=O)c1ccc2cccc(O)c2n1` (centres undefined): the MBC in data set [2] is 5 µM (≈ 2.44 µg/mL).
`O=[N+]([O-])c1cc(CN2CCN(c3ccc(F)cc3)CC2)c(O)c2ncccc12`: the MBC in data set [10] is 3.13 µM (≈ 1.2 µg/mL).
`Oc1cccc2ccc(Nc3ccccc3)nc12` registered an MIC in [5] greater than 20 µM.
On the same count and under the same terms, with `COc1ccc(CNC(=O)c2ccc3ccc(C)nc3c2O)cc1` the figure was greater than 500 µM.
As to `CC(=O)Oc1c(Br)cc(Br)c2ccc(C)nc12`, the MIC in data set [11] was determined as 12.5 µM (≈ 4.49 µg/mL).
Compound `O=[N+]([O-])c1cc(CN2CCC(c3ccccc3)C2)c(O)c2ncccc12` (centres undefined) yielded an MBC in data set [10] of 12.5 µM (≈ 4.37 µg/mL).
Regarding `CC(=O)N1CCN(c2nc(Nc3ccc(C#N)c(C(F)(F)F)c3)nc(Oc3cccc4cccnc34)n2)CC1`, the MIC was 117 µM (≈ 62.5 µg/mL) in data set [5] and 9.8 µM (≈ 5.24 µg/mL) in data set [12].
As for `O=C(Nc1cccc(Cl)c1)c1ccc2cccc(O)c2n1`, the MIC in data set [5] was 50 µM (≈ 14.9 µg/mL).
In the case of `N#Cc1ccc(Nc2nc(Oc3cccc4cccnc34)nc(N3CCN(c4cccc(Cl)c4Cl)CC3)n2)cc1C(F)(F)F`, the MIC in data set [5] was determined as 19.6 µM (≈ 12.5 µg/mL); in data set [12], 9.8 µM (≈ 6.25 µg/mL).
In [5], `Oc1cccc2ccc(N3CCCCC3)nc12` showed an MIC greater than 20 µM.
As for `O=C(NNC(c1ccc2cccnc2c1O)c1c[nH]c2ccccc12)c1ccncc1` (centres undefined), in data set [5], the MIC turned out to be 122 µM (≈ 50 µg/mL).
In turn, `COc1ccc(CN2CCN(c3nc(Nc4ccc(C#N)cc4)nc(Oc4cccc5cccnc45)n3)CC2)c(OC)c1OC` yielded an MIC in [12] of 9.8 µM (≈ 5.93 µg/mL).
Regarding `OC(COc1ccc(Cl)cc1)COc1cccc2cccnc12` (centres undefined), the MIC in [5] was 9.85 µM (≈ 3.25 µg/mL).
In data set [13], `C=CCONC(=O)c1ccc2cccc(O)c2n1` gave a half-maximal inhibitory concentration (IC50) of 123 nM.
In turn, `O=C(O)c1ccc2ccc(/C=C/c3ccccc3Cl)nc2c1O` showed an MIC in data set [5] of 120 µM (≈ 39.1 µg/mL).
Still for that read-out and setting: with `Cc1ccc(CNC(=O)c2ccc3ccc(C)nc3c2O)cc1` the figure was greater than 500 µM; with `O=C(Nc1cccc(C(F)(F)F)c1)c1ccc2cccc(O)c2n1`, 24 µM (≈ 7.97 µg/mL).
For the compound `O=S(=O)(Nc1ccc(Cl)cc1)c1ccc(O)c2ncccc12`, the MIC in [14] was found to be 3 µM (≈ 1 µg/mL).
In the case of `O=C(Nc1ccccc1[N+](=O)[O-])c1ccc2cccc(O)c2n1`, in [5], the MIC came to 97 µM (≈ 30 µg/mL).
For the compound `CC(=O)Oc1c(Cl)cc(Cl)c2cccnc12`, the 50% inhibitory concentration (IC50) in data set [8] amounted to 4.87 µM; in [9], 4.92 µM.
The compound `CNc1ccc2cccc(O)c2n1` gave an MIC in [5] of 6.4 µM (≈ 1.11 µg/mL).

The values above are taken from ChEMBL document CHEMBL5226349, “Novel Antimicrobial 8-Hydroxyquinoline-Based Agents: Current Development, Structure-Activity Relationships, and Perspectives” (J Med Chem, 2021).
